Measurements taken from patent US20240124465A1, “MOLECULES AND METHODS RELATED TO TREATMENT OF DISORDERS ASSOCIATED WITH JAK-2 SIGNALING DYSFUNCTION” (ST. JUDE CHILDREN'S RESEARCH HOSPITAL, priority 2020, published 2024).

Tests used:
Type in all cases: cell-based
MHH-CALL-4 cells = assay: Cytotoxicity assay (resazurin, 72 hours); set-up: AUC: unit not given beside the values; conditions: for EC50: MHHCALL4, resazurin; for AUC: area under the dose-response curve
Description: Cytotoxicity assay: MHH-CALL-4 cells were maintained in RPMI1640 medium (Invitrogen) supplemented with 10% FBS (Hyclone), Penicillin/Streptomycin (100 units/mL) and Glutamine (100 μM). 2×10^5 cells were seeded in 100 μl medium/well in 96 well assay plates (Corning 3603). Assays were performed in triplicate; compounds to be screened were added to assay plates from DMSO stock solutions by pin transfer using 50SS pins (V&P Scientific). The assay plates incubated at 37° C. in 5% CO2 for 72 hours. Cells were then incubated for four hours with resazurin (Sigma) solution and read on a Synergy HT plate reader (Biotek, Winooski, VT). High-throughput assay data was analyzed using our in-house Robust Interpretation of Screening Experiments (RISE) application written in Pipeline Pilot (Biovia, v. 17.2.0) and the R program (R Core Team, 2013). All the AUC (area under the dose-response curve) per compound calculated from its dose response curve by RISE protocol. Selected data were plotted and analyzed by GraphPad Prism software v7 using non-linear regression curve fitting.

JAK1 = molecular target: T1, JAK1 (Homo sapiens, UniProt P23458); assay: Western blot assay, JAK1 protein degradation; conditions: MHH-CALL-4 cells, vehicle control = 100%
T1 construct: endogenous in cells; host or cells: MHH-CALL-4
Description: (§1) Western blot assay: MHH-CALL-4 Cells were washed twice with ice-cold PBS and lysed in RIPA lysis buffer (Sigma) freshly supplemented with Halt™ Protease Inhibitor Cocktail (ThermoFisher) for 15 minutes on ice. The cell pellet was removed by centrifugation at 13,000 g at 4° C. for 15 minutes. Protein concentration was measured by BCA assay (Thermo Fisher Scientific). Proteins were denatured in NuPAGE LDS 4× sample buffer supplemented with reducing agents (Invitrogen). Typically, 10-20 μg of total protein was loaded per lane on a 4%-12% NUPAGE Bis-Tris gradient gel (Invitrogen) and analyzed by standard immunoblotting and imaged using Li—COR Odyssey CLx (LI-COR Biotechnology, Lincoln, NE). To access the protein degradation, the signal of target protein was normalized by the signal of ACBT and the signal of vehicle control was set as 100%. Primary antibodies used were: JAK1 (Cell Signaling #3332S), JAK2 (#3230S), JAK3 (#8827S), TYK2 (#9312S), GSPT1 (#14980S), CRBN (#71810S), IKZF1 (Santa Cruz Biotechnology, SC-398265) and ACBT (Santa Cruz Biotechnology, SC-47778).

JAK2 = assay: Western blot assay, JAK2 protein degradation; conditions: MHH-CALL-4 cells, vehicle control = 100%
Description: as §1

JAK3 = molecular target: T2, JAK3 (Homo sapiens, UniProt P52333); assay: Western blot assay, JAK3 protein degradation; conditions: MHHCALL4; 100 nM, 24 h; MHH-CALL-4 cells; vehicle control = 100%; read-out: Target Protein Degradation (% remaining at 100 nM, 24 h) JAK3
T2 construct: endogenous in cells; host or cells: MHH-CALL-4
T2 sequence (P52333 1-1124): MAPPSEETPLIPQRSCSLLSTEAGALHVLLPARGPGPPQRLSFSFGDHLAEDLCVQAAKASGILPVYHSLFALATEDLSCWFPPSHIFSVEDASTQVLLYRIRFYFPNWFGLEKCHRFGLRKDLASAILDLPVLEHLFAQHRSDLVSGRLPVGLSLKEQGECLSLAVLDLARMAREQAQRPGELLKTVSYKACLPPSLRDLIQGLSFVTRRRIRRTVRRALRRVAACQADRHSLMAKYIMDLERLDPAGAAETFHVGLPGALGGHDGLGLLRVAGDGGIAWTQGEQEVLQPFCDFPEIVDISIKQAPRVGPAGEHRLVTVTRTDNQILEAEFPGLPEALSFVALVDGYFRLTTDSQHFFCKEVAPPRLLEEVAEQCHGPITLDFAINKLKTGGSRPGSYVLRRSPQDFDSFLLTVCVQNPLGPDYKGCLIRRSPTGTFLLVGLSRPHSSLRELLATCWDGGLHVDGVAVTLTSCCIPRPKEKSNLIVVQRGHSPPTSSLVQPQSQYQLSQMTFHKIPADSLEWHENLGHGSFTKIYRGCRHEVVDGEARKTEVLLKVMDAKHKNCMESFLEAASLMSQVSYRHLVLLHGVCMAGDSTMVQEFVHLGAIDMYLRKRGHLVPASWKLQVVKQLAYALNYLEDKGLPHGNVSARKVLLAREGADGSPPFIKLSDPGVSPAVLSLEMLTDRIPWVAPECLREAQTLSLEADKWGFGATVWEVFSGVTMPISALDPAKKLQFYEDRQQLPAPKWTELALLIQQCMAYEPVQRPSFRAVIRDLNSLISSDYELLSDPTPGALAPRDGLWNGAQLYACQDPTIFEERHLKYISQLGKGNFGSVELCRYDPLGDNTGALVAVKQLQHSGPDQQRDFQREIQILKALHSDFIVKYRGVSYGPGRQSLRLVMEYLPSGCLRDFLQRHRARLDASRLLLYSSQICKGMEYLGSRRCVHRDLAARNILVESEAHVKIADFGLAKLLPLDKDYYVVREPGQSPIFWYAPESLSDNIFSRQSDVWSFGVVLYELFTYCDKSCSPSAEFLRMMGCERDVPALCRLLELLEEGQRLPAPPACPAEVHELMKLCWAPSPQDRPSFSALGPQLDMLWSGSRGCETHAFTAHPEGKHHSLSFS
Description: as §1

GSPT1 = molecular target: T3, GSPT1 (Homo sapiens, UniProt P15170); assay: Western blot assay, GSPT1 neosubstrate degradation; conditions: MHHCALL4; 100 nM, 24 h; MHH-CALL-4 cells; vehicle control = 100%
T3 construct: endogenous in cells; host or cells: MHH-CALL-4
Description: as §1

T1 sequence (P23458 whole entry): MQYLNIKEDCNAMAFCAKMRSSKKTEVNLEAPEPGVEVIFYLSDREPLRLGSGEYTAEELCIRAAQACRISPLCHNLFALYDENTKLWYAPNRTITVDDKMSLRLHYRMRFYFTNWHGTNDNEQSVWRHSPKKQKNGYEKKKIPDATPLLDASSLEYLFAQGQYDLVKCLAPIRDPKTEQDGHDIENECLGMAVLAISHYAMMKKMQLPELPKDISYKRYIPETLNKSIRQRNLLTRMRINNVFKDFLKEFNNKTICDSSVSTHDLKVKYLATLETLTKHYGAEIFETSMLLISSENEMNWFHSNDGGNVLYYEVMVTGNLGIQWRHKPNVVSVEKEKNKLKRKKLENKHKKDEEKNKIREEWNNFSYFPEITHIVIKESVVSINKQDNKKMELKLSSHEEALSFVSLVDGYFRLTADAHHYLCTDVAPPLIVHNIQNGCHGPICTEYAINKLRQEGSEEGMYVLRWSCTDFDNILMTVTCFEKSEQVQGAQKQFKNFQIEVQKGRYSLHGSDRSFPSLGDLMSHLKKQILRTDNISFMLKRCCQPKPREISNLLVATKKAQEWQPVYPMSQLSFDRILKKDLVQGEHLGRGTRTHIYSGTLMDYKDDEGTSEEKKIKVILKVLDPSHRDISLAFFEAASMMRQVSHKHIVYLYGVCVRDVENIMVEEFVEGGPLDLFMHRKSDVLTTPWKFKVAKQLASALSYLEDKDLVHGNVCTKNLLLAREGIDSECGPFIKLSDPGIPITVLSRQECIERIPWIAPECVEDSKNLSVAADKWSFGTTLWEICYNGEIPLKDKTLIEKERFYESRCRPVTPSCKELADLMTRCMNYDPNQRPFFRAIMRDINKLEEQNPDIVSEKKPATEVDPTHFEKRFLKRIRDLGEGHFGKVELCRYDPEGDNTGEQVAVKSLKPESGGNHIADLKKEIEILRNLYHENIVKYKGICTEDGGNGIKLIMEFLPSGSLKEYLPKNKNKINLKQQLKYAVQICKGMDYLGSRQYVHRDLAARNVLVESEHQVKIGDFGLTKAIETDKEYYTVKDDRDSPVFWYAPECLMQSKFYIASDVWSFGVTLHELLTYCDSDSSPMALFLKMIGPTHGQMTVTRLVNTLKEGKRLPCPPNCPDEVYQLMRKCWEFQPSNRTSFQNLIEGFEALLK
T3 sequence (P15170 whole entry): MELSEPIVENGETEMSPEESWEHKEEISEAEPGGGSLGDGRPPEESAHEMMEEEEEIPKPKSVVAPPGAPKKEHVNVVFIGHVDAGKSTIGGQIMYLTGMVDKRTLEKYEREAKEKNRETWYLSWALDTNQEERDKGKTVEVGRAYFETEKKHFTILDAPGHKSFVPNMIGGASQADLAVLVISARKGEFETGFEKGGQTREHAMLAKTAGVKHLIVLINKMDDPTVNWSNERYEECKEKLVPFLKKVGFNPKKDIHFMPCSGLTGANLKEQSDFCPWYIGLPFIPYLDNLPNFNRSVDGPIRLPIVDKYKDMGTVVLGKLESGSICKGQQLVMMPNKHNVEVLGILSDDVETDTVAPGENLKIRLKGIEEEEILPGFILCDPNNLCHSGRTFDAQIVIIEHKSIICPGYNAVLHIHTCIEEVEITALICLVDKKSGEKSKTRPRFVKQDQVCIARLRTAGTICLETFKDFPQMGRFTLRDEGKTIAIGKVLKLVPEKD

SMILES	EC50 (MHH-CALL-4 cells) [µM]	AUC (MHH-CALL-4 cells)	Target Protein Degradation (% remaining at 100 nM, 24 h) JAK1 (JAK1) [% remaining]	Target Protein Degradation (% remaining at 100 nM, 24 h) JAK2 (JAK2) [% remaining]	remaining activity at 0.1 µM (JAK3) [%]	remaining activity at 0.1 µM (GSPT1) [%]
CCS(=O)(=O)N1CC(CC#N)(n2cc(-c3nc(Nc4ccc(C(=O)NCCCCNc5cccc(C6CCC(=O)NC6=O)c5)cc4)nc4[nH]ccc34)cn2)C1 (stereo not drawn) [Compound 4]	0.0021	120	17	30	44	124
CCS(=O)(=O)N1CC(CC#N)(n2cc(-c3nc(Nc4ccc(C(=O)NCCCCCCCNc5cccc(C6CCC(=O)NC6=O)c5)cc4)nc4[nH]ccc34)cn2)C1 (stereo not drawn) [Compound 34]	0.031	210	90	71	69	74
CCCn1cc(-c2nc(Nc3ccc(C(=O)NCCN4CCN(c5ccc6c(c5)C(=O)N(C5CCC(=O)NC5=O)C6=O)CC4)cc3)nc3[nH]ccc23)cn1 (stereo not drawn) [Compound 39, N-(2-(4-(2-(2,6-dioxopiperidin-3-yl)-1,3-dioxoisoindolin-5-yl)piperazin-1-yl)ethyl)-4-((4-(1-propyl-1H-pyrazol-4-yl)-7H-pyrrolo[2,3-d]pyrimidin-2-yl)amino)benzamide]	0.0331	221	126	61	53	84
CCS(=O)(=O)N1CC(CC#N)(n2cc(-c3nc(Nc4ccc(C(=O)NCCCNC(=O)COc5cccc(C6CCC(=O)NC6=O)c5)cc4)nc4[nH]ccc34)cn2)C1 (stereo not drawn) [Compound 33]	0.0007	185	83	74	71	89
N#CC[C@H](C1CCCC1)n1cc(-c2nc(Nc3ccc(C(=O)NCCN4CCN(c5ccc6c(c5)C(=O)N(C5CCC(=O)NC5=O)C6=O)CC4)cc3)nc3[nH]ccc23)cn1 (stereo partly drawn) [Compound 22]	0.0181	141	72	36	61	103
CCS(=O)(=O)C1CC(CC#N)(n2cc(-c3nc(Nc4ccc(C(=O)N5CCC(c6ccc7c(c6)C(=O)N(C6CCC(=O)NC6=O)C7=O)CC5)cc4)nc4[nH]ccc34)cn2)C1 (stereo not drawn) [Compound 27]	0.289	143	107	68	92	118
CCS(=O)(=O)N1CC(CC#N)(n2cc(-c3nc(Nc4ccc(C(=O)NCCCCCNc5ccc(C6CCC(=O)NC6=O)cc5)cc4)nc4[nH]ccc34)cn2)C1 (stereo not drawn) [Compound 7]	0.0139	248	78	29	50	63
CCS(=O)(=O)N1CC(CC#N)(n2cc(-c3nc(Nc4ccc(C(=O)N5CCC6(CCN(c7ccc(C8CCC(=O)NC8=O)cc7)CC6)C5)cc4)nc4[nH]ccc34)cn2)C1 (stereo not drawn) [Compound 52, 2-(3-(4-(2-((4-(8-(4-(2,6-dioxopiperidin-3-yl)phenyl)-2,8-diazaspiro[4.5]decane-2-carbonyl)phenyl)amino)-7H-pyrrolo[2,3-d]pyrimidin-4-yl)-1H-pyrazol-1-yl)-1-(ethylsulfonyl)azetidin-3-yl)acetonitrile]	0.009	180	126	16	27	72
CCS(=O)(=O)N1CC(CC#N)(n2cc(-c3nc(Nc4ccc(C(=O)NCCCCCCNc5cccc(C6CCC(=O)NC6=O)c5)cc4)nc4[nH]ccc34)cn2)C1 (stereo not drawn) [Compound 3]	0.0017	248	94	56	79	84
CCS(=O)(=O)N1CC(CC#N)(n2cc(-c3nc(Nc4ccc(C(=O)NCCCN5CC6CCC(C5)N6c5ccc(C6CCC(=O)NC6=O)cc5)cc4)nc4[nH]ccc34)cn2)C1 (stereo not drawn) [Compound 55, 4-((4-(1-(3-(cyanomethyl)-1-(ethylsulfonyl)azetidin-3-yl)-1H-pyrazol-4-yl)-7H-pyrrolo[2,3-d]pyrimidin-2-yl)amino)-N-(3-(8-(4-(2,6-dioxopiperidin-3-yl)phenyl)-3,8-diazabicyclo[3.2.1]octan-3-yl)propyl)benzamide]	0.597	149	113	19	44	75
CCS(=O)(=O)N1CC(CC#N)(n2cc(-c3nc(Nc4ccc(C(=O)NCCCCN5CCN(c6ccc7c(c6)C(=O)N(C6CCC(=O)NC6=O)C7=O)CC5)cc4)nc4[nH]ccc34)cn2)C1 (stereo not drawn) [Compound 20]	0.0136	123	138	40	102	128
